# Results as given in US10703735B2, “4-phenyl-coumarin derivatives, processes for their preparation and uses thereof for the treatment of cancer” (Lead Discovery Center GmbH, priority 2018, dated 2020).
# pIC50: −log10 of the molar value.
# Biological target: mitochondrial RNA-polymerase (POLRMT) (Mus musculus, UniProt Q8BKF1)
# Assay: Homogeneous TR-FRET assay for mitochondrial transcription activity
# Format: biochemical
# Conditions: homogeneous TR-FRET assay according to Example 4; read-out: mitochondrial transcription activity (IC-50)
# Text: The TR-FRET assay was basically conducted as described in WO 2016/193231A1, especially as described in example 1 (hereby incorporated by reference). With respect to the background of the mitochondrial transcription it is referred to Falkenberg et al. (2002) and Posse et al. (Posse et al. 2015). The method monitors the activity of mitochondrial RNA-polymerase via detection of the formation of its product, a 407 bp long RNA sequence. Detection of the product is facilitated by hybridization of two DNA-oligonucleotide probes to specific and adjacent sequences within the RNA product sequence. Upon annealing of the probes, two fluorophores that are coupled directly to an acceptor nucleotide probe (ATT0647, 5′) or introduced via a coupled streptavidin interacting with a biotinylated donor nucleotide probe on the other side (Europium cryptate, 3) are brought into sufficient proximity to serve as a fluorescence-donor-acceptor pair as generally described in Walters and Namchuk (2003). Thus, a FRET signal at 665 nm is generated upon excitation at 340 nm.
# Briefly, the protocol described here was applied for screening and activity determination in a low-volume 384-well microtiter plate with non-binding surface. For high-throughput application in the 1536-well microtiter plate format, volumes of the reagent mixes were adjusted, maintaining the volumetric ratio. Proteins POLRMT (NM_172551.3), TFAM (NM_009360.4) and TFB2M (NM_008249.4) were diluted from their stocks to working concentrations of 150 nM, 1.8 μM and 330 nM respectively, in a dilution buffer containing 100 mM Tris-HCl pH 8.0, 200 mM NaCl, 10% (v/v) glycerole, 2 mM glutathione (GSH), 0.5 mM EDTA and 0.1 mg/mL BSA. Protein dilutions and template DNA, comprising a pUC18 plasmid encoding the mitochondrial light strand promoter, restriction linearized proximal to the promoter 3′-end (pUC-LSP), were mixed at the twofold final assay-concentration in a reaction buffer, containing 10 mM Tris-HCl pH 7.5, 10 mM MgCl2, 40 mM NaCl, 2 mM GSH, 0.01% (w/v) Tween-20 and 0.1 mg/mL BSA.
# 5 μL of this mix were dispensed, depending on the chosen microtiter plate format, using multi-channel pipettes or a Multidrop® dispenser (Thermo Fisher Scientific, Waltham Mass.) into the wells of a microtiter plate and incubated at room temperature (RT) for 10 min. Chemical compounds under scrutiny in the assay were applied using contact-free acoustic droplet-dispensing (Echo520® Labcyte Inc., Sunnyvale Calif.) from 10 mM compound stocks in 100% DMSO, to a final concentration of 10 μM or in serial dilution series of the required concentration range. Equal amounts of DMSO without any compound were added to positive control samples, followed by an incubation step at RT for 10 min.
# The enzymatic reaction was started by the addition of 5 μL of a mix of dNTPs in reaction buffer to a final concentration of 500 μM each. No nucleotide mix was added to negative control samples. The content of the wells was mixed using a VarioTeleshaker™ (Thermo Fisher Scientific, Waltham Mass.) at 1500 rpm for 45 sec after which the microtiter plate was centrifuged at 500×g for 1 min. The samples were incubated for 2 h at RT with humidity control to avoid evaporation. The detection reagents were prepared in a buffer that was composed, such that the enzymatic reaction was terminated due to chelating of Mg-ions and increased ionic strength, containing 50 mM Tris-HCl pH 7.5, 700 mM NaCl, 20 mM EDTA, and 0.01% (w/v) Tween-20. Importantly Eu-cryptate-coupled streptavidin had to be preincubated with a 100-fold molar excess of a random sequence oligonucleotide for 10 min at RT in the dark to block unspecific binding of single stranded RNA to the protein. Subsequently, the blocked streptavidin(-Eu) was mixed with the DNA-probes on ice and kept away from light until use. […]
# Sequence of mitochondrial RNA-polymerase (POLRMT) (Q8BKF1 42-1207): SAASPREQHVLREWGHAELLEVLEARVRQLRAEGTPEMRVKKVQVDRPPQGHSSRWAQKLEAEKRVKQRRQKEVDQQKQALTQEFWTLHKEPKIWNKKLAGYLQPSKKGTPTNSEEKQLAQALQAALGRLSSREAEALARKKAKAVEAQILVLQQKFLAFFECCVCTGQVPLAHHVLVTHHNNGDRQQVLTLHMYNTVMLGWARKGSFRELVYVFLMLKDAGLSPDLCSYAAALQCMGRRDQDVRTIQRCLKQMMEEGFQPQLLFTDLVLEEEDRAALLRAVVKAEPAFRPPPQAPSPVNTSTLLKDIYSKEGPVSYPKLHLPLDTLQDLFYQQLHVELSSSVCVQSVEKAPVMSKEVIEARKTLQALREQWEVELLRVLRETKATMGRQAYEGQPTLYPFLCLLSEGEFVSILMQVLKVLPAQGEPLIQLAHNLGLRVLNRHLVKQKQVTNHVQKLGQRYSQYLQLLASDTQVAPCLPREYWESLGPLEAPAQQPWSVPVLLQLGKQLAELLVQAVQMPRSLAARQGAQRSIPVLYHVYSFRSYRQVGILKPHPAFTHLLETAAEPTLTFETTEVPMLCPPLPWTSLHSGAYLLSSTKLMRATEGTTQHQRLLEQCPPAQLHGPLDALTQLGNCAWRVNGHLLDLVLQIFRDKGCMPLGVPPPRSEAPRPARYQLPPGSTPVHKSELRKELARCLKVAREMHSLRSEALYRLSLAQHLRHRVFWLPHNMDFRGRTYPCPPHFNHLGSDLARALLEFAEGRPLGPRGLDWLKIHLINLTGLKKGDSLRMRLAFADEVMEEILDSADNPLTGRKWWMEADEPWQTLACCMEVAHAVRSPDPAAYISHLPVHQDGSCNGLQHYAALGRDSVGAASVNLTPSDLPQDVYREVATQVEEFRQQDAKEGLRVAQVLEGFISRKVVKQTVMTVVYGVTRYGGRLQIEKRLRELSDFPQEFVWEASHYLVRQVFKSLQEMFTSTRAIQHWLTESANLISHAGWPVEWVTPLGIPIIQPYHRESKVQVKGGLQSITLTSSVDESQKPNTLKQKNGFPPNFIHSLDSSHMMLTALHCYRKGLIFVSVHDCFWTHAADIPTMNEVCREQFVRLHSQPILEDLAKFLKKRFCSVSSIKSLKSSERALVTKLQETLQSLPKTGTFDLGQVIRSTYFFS
row,Structure (SMILES),pIC50
1,"COC(=O)C1CCN(C(=O)C(C)Oc2ccc3c(-c4ccccc4)cc(=O)oc3c2)CC1 (stereo not drawn) [Compound 63, methyl 1-[2-(2-oxo-4-phenyl-chromen-7-yl)oxypropanoyl]piperidine-4-carboxylate]",5.00 to 6.00
2,"C[C@@H](Oc1ccc2c(-c3ccccc3)cc(=O)oc2c1)C(=O)O [Compound 66, (2R)-2-(2-oxo-4-phenyl-chromen-7-yl)oxypropanoic acid]",5.00 to 6.00
3,"CC(Oc1ccc2c(-c3ccccc3)cc(=O)oc2c1)C(N)=O (stereo not drawn) [Compound 67, 2-(2-oxo-4-phenyl-chromen-7-yl)oxypropanamide]",5.00 to 6.00
4,"CC(Oc1ccc2c(-c3ccccc3)cc(=O)oc2c1)C(=O)N1CCC(C(=O)O)CC1 (stereo not drawn) [Compound 69, 1-[2-(2-oxo-4-phenyl-chromen-7-yl)oxypropanoyl]piperidine-4-carboxylic acid]",5.00 to 6.00
5,"CC(Oc1ccc2c(-c3ccccc3)cc(=O)oc2c1)C(=O)NCCN1CCOCC1 (stereo not drawn) [Compound 70, N-(2-morpholinoethyl)-2-(2-oxo-4-phenyl-chromen-7-yl)oxy-propanamide]",5.00 to 6.00
6,"CCOC(=O)C(CC)Oc1ccc2c(-c3ccccc3)cc(=O)oc2c1 (stereo not drawn) [Compound 71, ethyl 2-(2-oxo-4-phenyl-chromen-7-yl)oxybutanoate]",5.00 to 6.00
7,"COc1ccc(NC(=O)C(C)Oc2ccc3c(-c4ccccc4)cc(=O)oc3c2)cc1 (stereo not drawn) [Compound 72, N-(4-methoxyphenyl)-2-(2-oxo-4-phenyl-chromen-7-yl)oxy-propanamide]",5.00 to 6.00
8,"CCOCCOC(=O)COc1ccc2c(-c3ccccc3)cc(=O)oc2c1 [Compound 73, 2-ethoxyethyl 2-(2-oxo-4-phenyl-chromen-7-yl)oxyacetate]",5.00 to 6.00
9,"CCCOC(=O)COc1ccc2c(-c3ccccc3)cc(=O)oc2c1 [Compound 74, propyl 2-(2-oxo-4-phenyl-chromen-7-yl)oxyacetate]",5.00 to 6.00
10,"NC(=O)COc1ccc2c(-c3ccccc3)cc(=O)oc2c1 [Compound 75, 2-(2-oxo-4-phenyl-chromen-7-yl)oxyacetamide]",5.00 to 6.00
11,"CCCCOC(=O)COc1ccc2c(-c3ccccc3)cc(=O)oc2c1 [Compound 76, butyl 2-(2-oxo-4-phenyl-chromen-7-yl)oxyacetate]",5.00 to 6.00
12,"CC(C)COC(=O)COc1ccc2c(-c3ccccc3)cc(=O)oc2c1 [Compound 77, isobutyl 2-(2-oxo-4-phenyl-chromen-7-yl)oxyacetate]",5.00 to 6.00
13,"O=C(COc1cc2oc(=O)cc(-c3ccccc3)c2cc1Cl)N1CCCc2ccccc21 [Compound 78, 6-chloro-7-[2-(3,4-dihydro-2H-quinolin-1-yl)-2-oxo-ethoxy]-4-phenyl-chromen-2-one]",5.00 to 6.00
14,"CC(Oc1cc2oc(=O)cc(-c3ccccc3)c2cc1Cl)C(=O)NCCN1CCOCC1 (stereo not drawn) [Compound 79, 2-(6-chloro-2-oxo-4-phenyl-chromen-7-yl)oxy-N-(2-morpholinoethyl)propanamide]",5.00 to 6.00
15,"CC(Oc1cc(F)c2c(-c3ccccc3)cc(=O)oc2c1)C(=O)N(C)C (stereo not drawn) [Compound 80, 2-(5-fluoro-2-oxo-4-phenyl-chromen-7-yl)oxy-N,N-dimethyl-propanamide]",5.00 to 6.00
16,"CCOC(=O)COc1ccc2c(-c3ccccc3)cc(=O)oc2c1 [Compound 81, ethyl 2-(2-oxo-4-phenyl-chromen-7-yl)oxyacetate]",5.00 to 6.00
17,"CC(C)(C)OC(=O)COc1cc2oc(=O)cc(-c3ccccc3)c2cc1Cl [Compound 82, tert-butyl 2-(6-chloro-2-oxo-4-phenyl-chromen-7-yl)oxyacetate]",5.00 to 6.00

# Next, values leading:
row,pIC50,Structure (SMILES)
1,6.00 to 7.00,"CC(Oc1cc2oc(=O)cc(-c3ccccc3)c2cc1Cl)C(=O)NCc1ccco1 (stereo not drawn) [Compound 42, 2-(6-chloro-2-oxo-4-phenyl-chromen-7-yl)oxy-N-(2-furylmethyl)propanamide]"
2,5.00 to 6.00,"CCOC(=O)C1CCCN(C(=O)COc2ccc3c(-c4ccccc4)cc(=O)oc3c2)C1 (stereo not drawn) [Compound 43, ethyl 1-[2-(2-oxo-4-phenyl-chromen-7-yl)oxyacetyl]piperidine-3-carboxylate]"
3,6.00 to 7.00,"CC(C)(C)OC(=O)COc1ccc2c(-c3ccccc3)cc(=O)oc2c1 [Compound 44, tert-butyl 2-(2-oxo-4-phenyl-chromen-7-yl)oxyacetate]"
4,5.00 to 6.00,"O=C(COc1cc2oc(=O)cc(-c3ccccc3)c2cc1Cl)N1CCOCC1 [Compound 45, 6-chloro-7-(2-morpholino-2-oxo-ethoxy)-4-phenyl-chromen-2-one]"
5,6.00 to 7.00,"O=C(COc1cc2oc(=O)cc(-c3ccccc3)c2cc1Cl)NC1CC1 [Compound 46, 2-(6-chloro-2-oxo-4-phenyl-chromen-7-yl)oxy-N-cyclopropyl-acetamide]"
6,6.00 to 7.00,"CCN(CC)C(=O)COc1cc2oc(=O)cc(-c3ccccc3)c2cc1Cl [Compound 47, 2-(6-chloro-2-oxo-4-phenyl-chromen-7-yl)oxy-N,N-diethyl-acetamide]"
7,5.00 to 6.00,"CCN(CC)C(=O)COc1ccc2c(-c3ccccc3)cc(=O)oc2c1 [Compound 48, N,N-diethyl-2-(2-oxo-4-phenyl-chromen-7-yl)oxy-acetamide]"
8,6.00 to 7.00,"CCOC(=O)COc1cc2oc(=O)cc(-c3ccccc3)c2cc1Cl [Compound 49, ethyl 2-(6-chloro-2-oxo-4-phenyl-chromen-7-yl)oxyacetate]"
9,6.00 to 7.00,"CCOC(=O)C(C)Oc1cc2oc(=O)cc(-c3ccccc3)c2cc1Cl (stereo not drawn) [Compound 50, ethyl 2-(6-chloro-2-oxo-4-phenyl-chromen-7-yl)oxypropanoate]"
10,6.00 to 7.00,"CC(Oc1ccc2c(-c3ccccc3)cc(=O)oc2c1)C(=O)O (stereo not drawn) [Compound 51, 2-(2-oxo-4-phenyl-chromen-7-yl)oxypropanoic acid]"
11,6.00 to 7.00,"O=C(O)C1CCCN(C(=O)COc2ccc3c(-c4ccccc4)cc(=O)oc3c2)C1 (stereo not drawn) [Compound 54, 1-[2-(2-oxo-4-phenyl-chromen-7-yl)oxyacetyl]piperidine-3-carboxylic acid]"
12,5.00 to 6.00,"CC(Oc1ccc2c(-c3ccccc3)cc(=O)oc2c1)C(=O)Nc1cccnc1 (stereo not drawn) [Compound 55, 2-(2-oxo-4-phenyl-chromen-7-yl)oxy-N-(3-pyridyl)propanamide]"
13,6.00 to 7.00,"COC(=O)C(C)Oc1ccc2c(-c3ccccc3)cc(=O)oc2c1 (stereo not drawn) [Compound 56, methyl 2-(2-oxo-4-phenyl-chromen-7-yl)oxypropanoate]"
14,6.00 to 7.00,"O=C(COc1cc2oc(=O)cc(-c3ccccc3)c2cc1Cl)Nc1ccc(CCO)cc1 [Compound 57, 2-(6-chloro-2-oxo-4-phenyl-chromen-7-yl)oxy-N-[4-(2-hydroxyethyl)phenyl]acetamide]"
15,6.00 to 7.00,"COC(=O)C(C)Oc1cc2oc(=O)cc(-c3ccccc3)c2cc1Cl (stereo not drawn) [Compound 58, methyl 2-(6-chloro-2-oxo-4-phenyl-chromen-7-yl)oxypropanoate]"
16,5.00 to 6.00,"O=C(COc1cc2oc(=O)cc(-c3ccccc3)c2cc1Cl)NCc1cccnc1 [Compound 59, 2-(6-chloro-2-oxo-4-phenyl-chromen-7-yl)oxy-N-(3-pyridylmethyl)acetamide]"
17,5.00 to 6.00,"CC(Oc1ccc2c(-c3ccccc3)cc(=O)oc2c1)C(=O)N1CCCC(C(N)=O)C1 (stereo not drawn) [Compound 60, 1-[2-(2-oxo-4-phenyl-chromen-7-yl)oxypropanoyl]piperidine-3-carboxamide]"
18,5.00 to 6.00,"CC(Oc1ccc2c(-c3ccccc3)cc(=O)oc2c1)C(=O)Nc1ccncc1 (stereo not drawn) [Compound 61, 2-(2-oxo-4-phenyl-chromen-7-yl)oxy-N-(4-pyridyl)propanamide]"
19,5.00 to 6.00,"CNC(=O)C1CCCN(C(=O)C(C)Oc2ccc3c(-c4ccccc4)cc(=O)oc3c2)C1 (stereo not drawn) [Compound 62, N-methyl-1-[2-(2-oxo-4-phenyl-chromen-7-yl)oxypropanoyl]piperidine-3-carboxamide]"
